Legend:
[1] = molecular target: T1, FLT-3 (Homo sapiens, UniProt P36888); test: radioisotope-based P81 filter-binding assay, FLT-3 kinase; assay type: biochemical; settings: averaged from two independent dose-response curves; read-out: Enzyme assay IC50 FLT-3
T1 sequence (P36888 27-993): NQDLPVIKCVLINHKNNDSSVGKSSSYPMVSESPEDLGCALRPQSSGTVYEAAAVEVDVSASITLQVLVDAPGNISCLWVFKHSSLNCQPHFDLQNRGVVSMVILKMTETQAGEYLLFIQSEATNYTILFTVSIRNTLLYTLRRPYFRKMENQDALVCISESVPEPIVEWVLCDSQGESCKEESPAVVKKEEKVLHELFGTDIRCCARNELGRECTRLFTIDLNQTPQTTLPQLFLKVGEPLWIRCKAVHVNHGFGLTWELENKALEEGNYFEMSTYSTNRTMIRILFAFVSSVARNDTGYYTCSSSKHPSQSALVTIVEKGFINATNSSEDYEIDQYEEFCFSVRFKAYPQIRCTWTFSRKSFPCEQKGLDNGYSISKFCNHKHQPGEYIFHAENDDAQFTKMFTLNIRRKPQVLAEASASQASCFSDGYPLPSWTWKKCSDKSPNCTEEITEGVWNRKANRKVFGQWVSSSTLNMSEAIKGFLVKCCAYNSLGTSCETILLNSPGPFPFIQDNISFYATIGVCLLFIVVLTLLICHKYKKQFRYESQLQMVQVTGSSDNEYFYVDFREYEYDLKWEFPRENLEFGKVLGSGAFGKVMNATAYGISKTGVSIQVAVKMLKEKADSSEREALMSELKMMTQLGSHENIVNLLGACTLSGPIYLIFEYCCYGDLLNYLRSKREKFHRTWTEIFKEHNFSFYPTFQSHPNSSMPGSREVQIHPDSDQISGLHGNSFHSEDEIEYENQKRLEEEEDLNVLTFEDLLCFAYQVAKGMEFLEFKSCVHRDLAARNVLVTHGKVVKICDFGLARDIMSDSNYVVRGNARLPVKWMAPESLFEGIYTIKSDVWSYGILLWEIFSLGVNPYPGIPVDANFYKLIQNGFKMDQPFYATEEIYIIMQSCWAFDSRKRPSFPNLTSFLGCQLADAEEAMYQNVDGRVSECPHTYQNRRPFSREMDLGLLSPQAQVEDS
Method: (§1) Compounds of formula (I)-(IV) were evaluated for abilities in inhibiting protein kinases aurora B and FLT-3 activity using radioisotope-based P81 filter-binding assay (Table 1).

[2] = molecular target: aurora B (Homo sapiens, UniProt Q96GD4); test: radioisotope-based P81 filter-binding assay, aurora B kinase; assay type: biochemical; settings: averaged from two independent dose-response curves; read-out: Enzyme assay IC50 Aur B
Sequence of aurora B (Q96GD4 whole entry): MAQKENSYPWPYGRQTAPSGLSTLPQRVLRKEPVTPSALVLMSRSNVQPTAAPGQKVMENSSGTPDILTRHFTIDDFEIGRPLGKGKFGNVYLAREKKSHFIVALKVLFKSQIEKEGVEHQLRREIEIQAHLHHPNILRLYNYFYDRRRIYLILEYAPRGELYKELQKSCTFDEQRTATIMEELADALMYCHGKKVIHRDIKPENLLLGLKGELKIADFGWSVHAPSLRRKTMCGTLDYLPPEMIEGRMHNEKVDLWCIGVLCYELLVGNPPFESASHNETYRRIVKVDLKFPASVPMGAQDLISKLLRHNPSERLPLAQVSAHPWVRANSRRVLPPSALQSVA
Method: as §1

[3] = tested on: MV4-11 human acute myelomonocytic leukemia cells; test: anti-proliferation, SRB colorimetric assay, MV4-11; assay type: cell-based; settings: concentration required for 50% growth inhibition
Method: HCT116 human colorectal carcinoma cells (Table 3), HepG2 human hepatocellular carcinoma cells (Table 4), and MV4-11 human acute myelomonocytic leukemia cells (Table 5). Cells were treated with the test compound and the concentration required for 50% growth inhibition (IC50) determined by sulfomodamine B (SRB) colorimetric assay.

IC50 [1] | melting point | IC50 [2] | IC50 [3] | Compound
> 1000 nM | > 300 °C | > 1000 nM | – | O=C1Nc2c(NC(=O)c3cccn(-c4ccc(F)cc4)c3=O)cccc2/C1=C/c1ccc[nH]1 [D118, (Z)—N-(3-((1H-pyrol-2-yl)methylene)-2-oxoindolin-7-yl)-1-(4-fluorophenyl)-2-oxo-1,2-dihydropyridine-3-carboxamide]
8.1 nM | > 300 °C | > 1000 nM | 1.39 nM | Cc1cc(C)c(/C=C2\C(=O)Nc3cc(NC(=O)c4cccn(-c5ccc(F)cc5)c4=O)ccc32)[nH]1 [D119, (Z)—N-(3-((3,5-dimethyl-1H-pyrrol-2-yl)methylene)-2-oxoindolin-6-yl)-1-(4-fluorophenyl)-2-oxo-1,2-dihydropyridine-3-carboxamide]
4.2 nM | > 300 °C | 14.3 nM | – | Cc1[nH]c(/C=C2\C(=O)Nc3cc(NC(=O)c4cccn(C)c4=O)ccc32)c(C)c1C(=O)O [D124, (Z)-2,4-dimethyl-5-((6-(1-methyl-2-oxo-1,2-dihydropyridine-3-carboxamido)-2-oxoindolin-3-ylidene)methyl)-1H-pyrrole-3-carboxylic acid]
> 1000 nM | – | 94.6 nM | 17.8 nM | Cn1cc(C(=O)Nc2ccc3c(c2)NC(=O)/C3=C\c2ccc[nH]2)c(=O)c(-c2ccc(F)cc2)c1 [D138, (Z)—N-(3-((1H-pyrrol-2-yl)methylene)-2-oxoindolin-6-yl)-5-(4-fluorophenyl)-1-methyl-4-oxo-1,4-dihydropyridine-3-carboxamide]
64.2 nM | > 300 °C | 29.2 nM | – | Cc1c[nH]cc(C(=O)Nc2ccc3c(c2)NC(=O)/C3=C\c2ccc[nH]2)c1=O [D139, (Z)—N-(3-((1H-pyrrol-2-yl)methylene)-2-oxoindolin-6-yl)-5-methyl-4-oxo-1,4-dihydropyridine-3-carboxamide]
24.6 nM | – | 4.5 nM | 6.69 nM | COc1ccc(-c2c[nH]cc(C(=O)Nc3ccc4c(c3)NC(=O)/C4=C\c3[nH]c(C)c(C(=O)O)c3C)c2=O)cc1 [D142, (Z)-5-((6-(5-(4-methoxyphenyl)-4-oxo-1,4-dihydropyridine-3-carboxamido)-2-oxoindolin-3-ylidene)methyl)-2,4-dimethyl-1H-pyrrole-3-carboxylic acid]
194 nM | > 300 °C | 3.7 nM | – | Cc1[nH]c(/C=C2\C(=O)Nc3cc(NC(=O)c4c[nH]cc(C)c4=O)ccc32)c(C)c1C(=O)O [D143, (Z)-2,4-dimethyl-5-((6-(5-methyl-4-oxo-1,4-dihydropyridine-3-carboxamido)-2-oxoindolin-3-ylidene)methyl)-1H-pyrrole-3-carboxylic acid]
> 1000 nM | 243 °C | > 1000 nM | – | Cc1cc(C(=O)O)[nH]c1/C=C1\C(=O)Nc2cc(NC(=O)c3c[nH]cc(-c4ccc(F)cc4)c3=O)ccc21 [D146, (Z)-5-((6-(5-(4-fluorophenyl)-4-oxo-1,4-dihydropyridine-3-carboxamido)-2-oxoindolin-3-ylidene)methyl)-4-methyl-1H-pyrrole-2-carboxylic acid]
50.4 nM | > 300 °C | 6.7 nM | – | Cc1[nH]c(/C=C2\C(=O)Nc3cc(NC(=O)c4c[nH]cc(-c5cc(F)cc(F)c5)c4=O)ccc32)c(C)c1CCC(=O)O [D148, (Z)-3-(5-((6-(5-(3,5-difluorophenyl)-4-oxo-1,4-dihydropyridine-3-carboxamido)-2-oxoindolin-3-ylidene)methyl)-2,4-dimethyl-1H-pyrrol-3-yl)propanoic acid]
1.2 nM | 235 °C (dec.) | 135 nM | – | COc1ccc(-c2c[nH]cc(C(=O)Nc3ccc4c(c3)NC(=O)/C4=C\c3[nH]c(C)c(C(=O)N4CCN(C)CC4)c3C)c2=O)cc1 [D154]

The remaining lines, values behind:

Compound | IC50 [1] | melting point | IC50 [2] | IC50 [3]
O=C(NC(=O)c1ccc(Cl)c(C(F)(F)F)c1)Nc1ccc2c(c1)NC(=O)/C2=C\c1ccc[nH]1 [D28, (Z)—N-(3-((1H-pyrrol-2-yl)methylene)-2-oxoindolin-6-ylcarbamoyl)-4-chloro-3-(trifluoromethyl)benzamide] | 385 nM | 280 to 285 °C (dec.) | 15 nM | 0.79 nM
O=C1Nc2cccc(NC(=O)c3cccn(-c4ccc(F)cc4)c3=O)c2/C1=C/c1ccc[nH]1 [D103, (Z)—N-(3-((1H-pyrrol-2-yl)methylene)-2-oxoindolin-4-yl)-1-(4-fluorophenyl)-2-oxo-1,2-dihydropyridine-3-carboxamide] | > 1000 nM | > 300 °C | > 1000 nM | –
O=C1Nc2ccc(NC(=O)c3cccn(-c4ccc(F)cc4)c3=O)cc2/C1=C/c1ccc[nH]1 [D104, (Z)—N-(3-((1H-pyrrol-2-yl)methylene)-2-oxoindolin-5-yl)-1-(4-fluorophenyl)-2-oxo-1,2-dihydropyridine-3-carboxamide] | > 1000 nM | > 300 °C | > 1000 nM | –
O=C1Nc2cc(NC(=O)c3cccn(-c4ccccc4)c3=O)ccc2/C1=C/c1ccc[nH]1 [D105, (Z)—N-(3-((1H-pyrrol-2-yl)methylene)-2-oxoindolin-6-yl)-2-oxo-1-phenyl-1,2-dihydropyridine-3-carboxamide] | 48.4 nM | > 300 °C | 87.4 nM | 0.13 nM
COc1ccc(-n2cccc(C(=O)Nc3ccc4c(c3)NC(=O)/C4=C\c3ccc[nH]3)c2=O)cc1 [D106, (Z)—N-(3-((1H-pyrrol-2-yl)methylene)-2-oxoindolin-6-yl)-1-(4-methoxyphenyl)-2-oxo-1,2-dihydropyridine-3-carboxamide] | > 1000 nM | > 300 °C | 209 nM | 12.6 nM
O=C1Nc2cc(NC(=O)c3cccn(-c4ccc(Cl)cc4)c3=O)ccc2/C1=C/c1ccc[nH]1 [D108] | 26.3 nM | > 300 °C | > 1000 nM | 0.88 nM
O=C1Nc2cc(NC(=O)c3cccn(-c4ccc(Cl)c(C(F)(F)F)c4)c3=O)ccc2/C1=C/c1ccc[nH]1 [D109, (Z)—N-(3-((1H-pyrrol-2-yl)methylene)-2-oxoindolin-6-yl)-1-(4-chloro-(3-trifluoromethyl)phenyl)-2-oxo-1,2-dihydropyridine-3-carboxamide] | 77.4 nM | – | > 1000 nM | 7.19 nM
Cc1ccc(-n2cccc(C(=O)Nc3ccc4c(c3)NC(=O)/C4=C\c3ccc[nH]3)c2=O)cc1 [D111, (Z)—N-(3-((1H-pyrrol-2-yl)methylene)-2-oxoindolin-6-yl)-2-oxo-1-p-tolyl-1,2-dihydropyridine-3-carboxamide] | 37.5 nM | > 300 °C | 209 nM | 3.42 nM
O=C1Nc2cc(NC(=O)c3cccn(-c4ccc(C(F)(F)F)cc4)c3=O)ccc2/C1=C/c1ccc[nH]1 [D112] | 137 nM | > 300 °C | > 1000 nM | 2.09 nM
O=C1Nc2cc(NC(=O)c3cccn(-c4cccc(C(F)(F)F)c4)c3=O)ccc2/C1=C/c1ccc[nH]1 [D113] | 134 nM | > 300 °C | 689 nM | 2.78 nM
O=C1Nc2cc(NC(=O)c3cccn(-c4cccc(Cl)c4)c3=O)ccc2/C1=C/c1ccc[nH]1 [D114] | 91.2 nM | > 300 °C | 251 nM | 1.55 nM
O=C1Nc2cc(NC(=O)c3cccn(-c4ccccc4F)c3=O)ccc2/C1=C/c1ccc[nH]1 [D115] | 535 nM | > 300 °C | 138 nM | 6.69 nM
Cn1cccc(C(=O)Nc2ccc3c(c2)NC(=O)/C3=C\c2ccc[nH]2)c1=O [D116, (Z)—N-(3-((1H-pyrrol-2-yl)methylene)-2-oxoindolin-6-yl)-1-methyl-2-oxo-1,2-dihydropyridine-3-carboxamide] | 510 nM | > 300 °C | 102 nM | –
O=C1Nc2cc(NC(=O)c3cccn(CCO)c3=O)ccc2/C1=C/c1ccc[nH]1 [D117, (Z)—N-(3-((1H-pyrrol-2-yl)methylene)-2-oxoindolin-6-yl)-1-(2-hydroxyethyl)-2-oxo-1,2-dihydropyridine-3-carboxamide] | 612 nM | 298 °C (dec.) | 32.5 nM | –
